Data reported in US20240325548A1, “DYNAMIC BIOACTIVE SCAFFOLDS AND THERAPEUTIC USES THEREOF AFTER CNS INJURY” (Northwestern University, priority 2021, published 2024).

How the values were obtained:
Assay type in all cases: physicochemical
[1] = Miscibility and hydrogel formation of IKVAV PA / FGF2 PA binary systems (cryo-TEM, rheology); conditions: particularly at molar ratio 90:10
Description: For in vitro experiments: After lyophilization, PA powder was reconstituted in 150 mM NaCl and 3 mM KCl solution and adjusted to a pH of 7.4 using 1 μL additions of 1 M NaOH to ensure cell compatibility and material consistency. Different bioactive PAs were mixed at different mol % (see Table 3) and horn sonicated at 10% intensity, three times for 10 seconds. PA solutions were annealed at 80° C. for 30 min and then slowly cooled at 1° C. per minute to reach a final temperature of 27° C. using a thermocycler (Eppendorf PCR Thermocycler) for even and controlled heating and cooling of all samples. To prepare a PA coated substrate, 24-, 12-, or 6-well polystyrene cell culture plate or 12 mm and 18 mm glass coverslips (German Glass, Chemglass Life Science) were coated with poly-D-lysine (0.01 mg/mL, Sigma-Aldrich) for 3 h at 37° C. The plates were then rinsed with MilliQ water three times and allowed to dry for 4 h. PAs were painted on the coverslips or tissue culture plates by dragging a pipette (8-30 μL of annealed PAs (1 wt %)) to extrude a thin, even coating of material across the surface. PA coatings were incubated for 3 h at room temperature. The plates were gently rinsed with media before further use. For dye-labeled PAs experiments, Cy3-labeled-FGF2 PAs were co-assembled at 1 mol % with their corresponding non-labeled PA counterparts (see table 3).
Plunge-freezing for Cryo-TEM samples were prepared using a FEI model Vitrobot MarkIV (FEI). 7 μL of the sample solution ([PA]=0.05-0.1 wt % in H2O) was deposited on a plasma-cleaned TEM grid (300 mesh copper with lacey carbon, Electron Microscopy Sciences) and held in place with tweezers mounted on the Vitrobot. The specimen was blotted in an environment with 100% humidity at room temperature (blot force: 3, blot total: 1-2, wait time: 0.5-1 s, blot time: 3 s, drain time: 0-1 s), and plunged into a liquid ethane reservoir cooled by liquid nitrogen. The vitrified samples were stored in liquid nitrogen and then transferred to a Gatan 626 Cryo-TEM holder. Cryo-TEM images were obtained using a JEOL1230 electron microscope operating with a LaB6 filament at an accelerating voltage of 100 kV, equipped with a Gatan 831 CCD camera.
PA materials were prepared using the method described above for in vitro studies. An MCR302 Rheometer (Anton Paar) was used for all rheological studies. The instrument stage was set to 37° C. to simulate in vitro and in vivo conditions. The PA solution (150 μL) was placed on the sample stage and 30 μL of 25 mM CaCl2) solution was pipetted onto the underside of a 25 mm cone plate positioned above the material. […] The storage and loss modulus (G′ and G″) were recorded after a plateau occurred.

[2] = Small- and wide-angle X-ray scattering (SAXS/WAXS) of PA nanofibers; conditions: PA nanofibers in solution
Description: Small-angle X-ray scattering (SAXS), medium-angle X-ray scattering (MAXS), a wide-angle X-ray scattering (WAXS) experiments were performed at beamline 5-ID-D of the DuPont-Northwestern-Dow Collaborative Access Team (DND-CAT) Synchrotron Research Center at the Advanced Photon Source, Argonne National Laboratory. 100-150 μL of sample solution ([PA]=1-3 w/v % (˜6-10 mM) in aqueous NaCl and KCl ([NaCl]=150 mM and [KCl]=3 mM)) was introduced into capillary flow-cell with a fixed diameter and irradiated with X-ray for an exposure time of 0.5, 2, 3, or 10 s. Samples were oscillated at a rate of […] in the capillary with a syringe pump during sample measurement to prevent damage due to beam overexposure. Data was collected with an X-ray energy at 17 keV ([…]) with a triple-area detector system. The scattering intensity was recorded in the interval 0.002390<q<4.4578 Å^−1. The wave vector q is defined as =(4π/λ) sin(θ/2), where θ is the scattering angle. The acquired 2D scattering data were then reduced to 1D intensity vs. wavevector plots via azimuthal integration around the beam center in GSAS-II software. Background scattering patterns were obtained from samples containing 150 mM NaCl and 3 mM KCl. This background data was then subtracted from experimental data. All data was analyzed using the Irena software package running on IgorPro software.

[3] = Diffusion ordered spectroscopy (DOSY), pulse-field gradient NMR
Description: The diffusion coefficients were measured by pulse-field gradient NMR using the longitudinal eddy-current delay with bipolar pulse pairs pulse sequence with a maximum gradient strength of 53.5 G/cm and 16 values for the gradient strength. The peak intensity I was measured and fit to the Stejskal-Tanner equation: […]
where I0 is the intensity in the absence of the gradient pulse, D is the diffusion coefficient, γ is the proton gyromagnetic ratio, g is the gradient strength, δ is the length of the pulse field gradient pulse (2 ms) and Δ is the diffusion delay (0.1 s).
The […] was calculated from the Stokes-Einstein equation as: […]
where kB is the Boltzmann constant, T is the temperature, and f is the viscosity.
PA materials were mixed (90 mol % of IKVAV PA2+10 mol % FGF2 PAs) and sonicated as described above and then lyophilized. Samples were then dissolved in D2O water and solubilized in 1 equiv. NaOD at a concentration of 6 mM in standard 5 mm NMR tube with 0.25 mM sodium trimethylsilylpropanesulfonate (DSS) as a chemical shift reference and an intensity standard. […] Diffusion coefficients were measured using pulse-field gradient NMR using the stimulated echo pules sequence with a 2 ms gradient pulse and a 100 ms diffusion delay time using a maximum gradient strength of 53 G/cm.

| Substance | miscibility and hydrogel formation when mixed with FGF2 PA1 or FGF2 PA2 [1] | SAXS slope in the Guinier region [2] | Rh ([3]; calculated from Stokes-Einstein equation) [nm] | D ([3]; diffusion coefficient, DOSY) |
| --- | --- | --- | --- | --- |
| C16-G4E4GIKVAV [IKVAV PA5] | immiscibility | −0.2 | – | – |
| C16-VAG2E4GIKVAV [IKVAV PA4] | immiscibility | – | – | – |
| C16-A2G2E4GIKVAV [IKVAV PA2] | both miscible and could form hydrogels with similar mechanical properties | −1.2 | 1.4 | 1.6 ± 0.01 × 10^−10 m^2/s |
| C16-V2A2E4GIKVAV [IKVAV PA1] | immiscibility | – | – | – |
